Results as given in BigSolDB 2.1.

NC(=O)Nc1ccccc1
solubility (mole fraction)
Details | 283.15 K | 288.15 K | 293.15 K | 298.15 K | 303.15 K | 308.15 K | 313.15 K | 318.15 K | 323.15 K
in 1,2-dichloroethane | 0.000433 | 0.000528 | 0.000706 | 0.000952 | 0.0012 | 0.00151 | 0.002 | 0.00257 | 0.00315
in 1,4-dioxane | – | 0.0128 | 0.0152 | 0.0183 | 0.022 | 0.0276 | 0.0348 | 0.0433 | 0.0525
in DMF | 0.205 | 0.212 | 0.22 | 0.229 | 0.24 | 0.253 | 0.266 | 0.282 | 0.3
in DMSO | – | – | 0.192 | 0.199 | 0.207 | 0.217 | 0.229 | 0.244 | 0.262
in NMP | 0.0457 | 0.0517 | 0.0596 | 0.0686 | 0.0787 | 0.0898 | 0.101 | 0.115 | 0.13
in acetonitrile | 0.00622 | 0.00731 | 0.00867 | 0.0106 | 0.0135 | 0.0177 | 0.0221 | 0.0264 | 0.0318
in ethanol | 0.0236 | 0.0272 | 0.0322 | 0.0383 | 0.0459 | 0.0525 | 0.0612 | 0.072 | 0.082
in ethyl acetate | 0.0147 | 0.0176 | 0.0209 | 0.0257 | 0.0309 | 0.0384 | 0.0461 | 0.0549 | 0.0643
in ethylene glycol | 0.0338 | 0.039 | 0.0448 | 0.0517 | 0.0595 | 0.0681 | 0.0774 | 0.0882 | 0.101
in isopropanol | 0.00903 | 0.0108 | 0.0132 | 0.0164 | 0.0198 | 0.0253 | 0.0321 | 0.0392 | 0.0472
in methanol | 0.0265 | 0.0305 | 0.036 | 0.0421 | 0.0495 | 0.0578 | 0.0672 | 0.0774 | 0.0888
in n-propanol | 0.02 | 0.0235 | 0.0281 | 0.0334 | 0.0394 | 0.0458 | 0.0539 | 0.0629 | 0.0723
in water | 0.000409 | 0.000513 | 0.000649 | 0.000828 | 0.00102 | 0.00124 | 0.0015 | 0.0018 | 0.00208
